# Data reported in patent US20030198611A1, “Method of treating onychomycosis with urea and an antioxidant” (Bradley Pharmaceuticals, Inc., priority 2002, published 2003).
# Tested on: fungi
# Assay: antifungal potency of urea compared with known antifungal agents
# Settings: no method or data given
structure (smiles),measurement,value
NC(N)=O [urea],antifungal potency relative to known antifungal agents,equal potency to known antifungal agents
